Test [1] addresses T1, beta-amyloid soluble oligomers (Homo sapiens, UniProt P05067).
T1 construct: 1 mg of human beta-amyloid 1-42 (H-5642, Bachem); purchased Bachem H-5642; host or cells: synthetic peptide
Put plainly: Ex vivo fluorescent binding assay, pre-formed soluble oligomers on naive rat brain sections. The note with it: 50 μM probe, naive rat brain section, fluorescence microscopy. On the procedure:
A. 1 mg of human beta-amyloid 1-42 (H-5642, Bachem) and 500 uL of 1,1,1,3,3,3 hexafluoro-2-propanol (HFIP) (Aldrich) were chilled in separate bottles on ice for 30 mins. Cold beta-amyloid 1-42 was solubilized with cold HFIP. The mixture was incubated for 1 hr at room temperature until it turned clear. The resulting solution was then dried to a film under vacuum. The film was dissolved again in cold HFIP and incubated another 1 hr at room temperature. The resulting solution was separated into aliquots in several microcentrifuge tubes. HFIP was removed under vacuum, and the films were stored at −20° C. until use. […]
A 1/100th dilution of the secondary antibody Alexa Fluor 594-goat anti-mouse IgG (Molecular Probes) in PBS was applied onto the slides, and incubated at room temperature for 1.5 hours. […] Microscopic examination and imaging was performed using a Leica wide-field fluorescence microscope using filter cube A (band pass 340-380 nm with a 400 nm dichroic mirror and a long pass 400 nm suppression filter) for 49b, cube E4 (band pass 436 nm with 455 dichroic mirror and a long pass 470 nm suppression filter) for Thioflavin T, and TX2 (band pass 520-600 nm with 595 nm dichroic mirror and 645/75 band pass suppression filter) for 6E10 immunostaining. […]

Test [2] has as its target T2, beta-amyloid 1-42 oligomer (20% biotin) (Homo sapiens, UniProt P05067).
T2 construct: 12 μg beta-amyloid 1-42 oligomer (20% biotin); purchased Bachem H-5642; host or cells: synthetic peptide
Nature of the test: Scintillation proximity assay (SPA), direct/saturation binding of tritium labeled probe to soluble oligomers. (SPA uses beads or plates that emit light when radiolabelled molecules are held near them.)
Method: To prepare soluble oligomer, the film was dissolved in appropriate amount of dry DMSO (Sigma), and Ham's F12 media (Biosource) or PBS (Sigma, D8537) was added and incubated at 4° C. for 24 hours (final concentration of 200 uM or 0.9 mg/mL beta-amyloid in 2% DMSO). The tube containing the soluble oligomers was centrifuged at 13,000 rpm for 5 mins, and its supernatant was transferred to a clean tube.
For SPA and atomic force microscopy (AFM) experiments, preparations of soluble oligomers and fibrils contained 20% biotinylated beta-amyloid 1-42 and 1-40, respectively (H-5642, H-5914, Bachem).
For the saturation-binding assay, isotopic dilution of radiolabeled 49b with unlabeled 49b was performed. ^3H-49b was added to 500 uM of unlabeled 49b to a final concentration of 50 μCi/mL ^3H-49b. The probe solution was then serially diluted in PBS to give six solutions giving 6.6, 13.1, 26.3, 52.5, 105, or 210 uM in the final assay well. Each concentration of the probe solution was incubated with 12 μg beta-amyloid 1-42 oligomer (20% biotin) or 1-40 (20% biotin) fibrils in a total volume of 90 μl. Assays were incubated at room temp for 2 hrs before addition of 10 μL YSi-streptavidin (0.25 mg) SPA bead. Assays were set-up in triplicate in 96-well NBS plates (Costar). Assays were incubated overnight and counted the following morning. […] Assay conditions were the same as described in saturation binding assay.
A direct binding assay using tritium labeled 49b was performed against oligomers or fibrils by scintillation proximity assay (SPA). Beta-amyloid containing 20% biotin and tritiated 49b were incubated in solution for two hours prior to addition of the Ysi-Streptavidin beads.

Test [3] has as its target T2, beta-amyloid 1-42 oligomer (20% biotin). Nature of the test: SPA competition binding assay against 3H-49b on soluble oligomers. Conditions: 50 uM unlabeled competitor, 130 nM 3H-49b. The procedure: Lyophilized Streptavidin-Ysi beads (GE Healthcare) were reconstituted to 100 mg/mL in deioniozed water, and then further diluted in deionized water to give a suspension containing 0.25 mg/10 μl water. Unlabeled 49b and other benzofuran probes were dissolved in DMSO to give a final stock concentration of 15 mM.
For the saturation-binding assay, isotopic dilution of radiolabeled 49b with unlabeled 49b was performed. ^3H-49b was added to 500 uM of unlabeled 49b to a final concentration of 50 μCi/mL ^3H-49b. The probe solution was then serially diluted in PBS to give six solutions giving 6.6, 13.1, 26.3, 52.5, 105, or 210 uM in the final assay well. Each concentration of the probe solution was incubated with 12 μg beta-amyloid 1-42 oligomer (20% biotin) or 1-40 (20% biotin) fibrils in a total volume of 90 μl. Assays were incubated at room temp for 2 hrs before addition of 10 μL YSi-streptavidin (0.25 mg) SPA bead. Assays were set-up in triplicate in 96-well NBS plates (Costar). Assays were incubated overnight and counted the following morning. […] The specific activities of the four probes were different, however the level of activity was the same at the concentrations where the probes were tested. For this assay, 130 nM of ^3H-49b, 90 nM ^3H-cimetidine, 14 nM ^3H-caffeine, and 6 nM ^3H-AZT were tested for direct binding to 12 ug of beta-amyloid-42 oligomer (20% biotin). Assay conditions were the same as described in saturation binding assay. […]
Data analyses were performed using Sigma Plot or GraphPad Prism® version 4. Curves were fitted using non-linear regression. KD values and IC50 values were estimated from the binding curves.
For the competition binding assay between tritium-labeled 49b and various unlabeled benzofuran analogs, assays contained 130 nM ^3H-49b and 50 uM of each of the unlabeled benzofuran analogs. As controls, 10 uM and 50 uM of unlabeled 49b were included in the assays.

T2 sequence (P05067 672-713 limits assumed): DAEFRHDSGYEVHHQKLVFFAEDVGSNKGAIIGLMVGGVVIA
T1 sequence (P05067 672-713 limits assumed): as above

Consider `O=Cc1ccc(-c2oc3ccccc3c2CO)o1` [Compound 49b, 2-(2-formyl-5-furanyl)-3-hydroxymethyl benzofuran], for which the “staining of immobilized oligomers” value in test [1] is recorded as “clear staining of oligomers with low background”. For the same compound, binding in test [2] (SPA saturation binding of 3H-49b, isotopic dilution with unlabeled 49b) was put at a Kd of 50 µM. In addition, the Bmax in test [2] (SPA saturation binding, oligomers) was 60-80 nmol/mg beta-amyloid. For the same compound, the “molar ratio probe : beta-amyloid” value in test [2] (from Bmax, oligomers) was 1 probe: 3-4 beta-amyloid. The same compound had an inhibition at 50 µM in test [3] of 61%.

By Kd is commonly meant a measure of binding affinity in units of concentration. What is called inhibition is the share of the control response that was lost under treatment.
